Active and inactive are the calls of the source. The rule behind the calls is not given here.
Tests used:
[1] = target: Serine/threonine-protein kinase Nek6 (Homo sapiens) (UniProt Q9HC98); assay: Inhibition of NEK6 (unknown origin) at 1 uM relative to control; values are per cent of control
4T1 [2] = assay: Induction of cell cycle arrest in mouse 4T1 adherent cells assessed as accumulation at G0/G1 phase at 1 uM measured after 72 hrs by PI staining based flow cytometry analysis (reference value: 81.3%); format: functional
4T1 [3] = assay: Induction of cell cycle arrest in mouse 4T1 cells assessed as accumulation at sub-diploid cells at 1 uM measured after 72 hrs by PI staining based flow cytometry analysis; format: functional
[4] = target: Vascular endothelial growth factor receptor 2 (Homo sapiens) (UniProt P35968); assay: Inhibition of KDR (unknown origin) at 0.1 uM relative to control; values are per cent of control
MDA-MB-231 = assay: Upregulation of FAK level in human MDA-MB-231 cells harbouring mCherry red fluorescent protein at 0.1 to 1 uM incubated for 1 hr by immunoblotting analysis; format: functional, cell-based; details: dose 0.1-1 µM
[5] = target: Mast/stem cell growth factor receptor Kit (Homo sapiens) (UniProt P10721); assay: Inhibition of c-kit (unknown origin) at 0.1 uM relative to control; values are per cent of control
Chain of Mast/stem cell growth factor receptor Kit (Homo sapiens) (P10721 whole entry): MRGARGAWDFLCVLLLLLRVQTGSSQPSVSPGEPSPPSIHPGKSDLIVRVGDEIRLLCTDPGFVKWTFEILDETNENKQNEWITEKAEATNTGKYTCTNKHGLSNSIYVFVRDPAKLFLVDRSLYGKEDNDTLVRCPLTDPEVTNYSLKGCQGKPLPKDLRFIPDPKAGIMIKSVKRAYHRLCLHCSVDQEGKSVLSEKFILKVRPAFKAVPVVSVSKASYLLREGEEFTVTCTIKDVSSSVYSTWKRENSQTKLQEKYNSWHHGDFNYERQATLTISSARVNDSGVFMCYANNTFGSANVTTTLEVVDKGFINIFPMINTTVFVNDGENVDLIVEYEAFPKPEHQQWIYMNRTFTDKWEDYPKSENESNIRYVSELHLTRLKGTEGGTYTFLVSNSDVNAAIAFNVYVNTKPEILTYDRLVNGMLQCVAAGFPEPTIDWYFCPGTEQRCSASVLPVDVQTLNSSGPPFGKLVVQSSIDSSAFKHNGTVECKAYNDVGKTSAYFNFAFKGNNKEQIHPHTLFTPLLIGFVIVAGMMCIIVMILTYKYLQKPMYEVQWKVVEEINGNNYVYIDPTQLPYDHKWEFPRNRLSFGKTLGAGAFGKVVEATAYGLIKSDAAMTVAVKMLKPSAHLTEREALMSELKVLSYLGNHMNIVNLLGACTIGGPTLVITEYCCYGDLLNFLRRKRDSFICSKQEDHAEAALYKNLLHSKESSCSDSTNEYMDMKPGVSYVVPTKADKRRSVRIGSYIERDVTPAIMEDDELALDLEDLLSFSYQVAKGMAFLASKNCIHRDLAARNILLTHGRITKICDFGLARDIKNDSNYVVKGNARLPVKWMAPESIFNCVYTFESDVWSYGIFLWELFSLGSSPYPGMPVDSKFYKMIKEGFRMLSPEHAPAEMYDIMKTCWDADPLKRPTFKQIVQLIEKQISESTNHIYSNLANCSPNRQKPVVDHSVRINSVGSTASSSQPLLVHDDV

[6] = target: Insulin receptor (Homo sapiens) (UniProt P06213); assay: Inhibition of IR (unknown origin) at 1 uM relative to control; values are per cent of control
4T1 [7] = assay: Effect on p130Cas phosphorylation in mouse 4T1 cultured as 3D spheroids at 0.1 to 1 uM incubated for 24 hrs by immunoblotting analysis; format: functional, cell-based; details: dose 0.1-1 µM
[8] = target: Activated CDC42 kinase 1 (Homo sapiens) (UniProt Q07912); assay: Inhibition of ACK1 (unknown origin) at 0.1 uM relative to control; values are per cent of control
[9] = target: Serine/threonine-protein kinase Chk1 (Homo sapiens) (UniProt O14757); assay: Inhibition of CHK1 (unknown origin) at 1 uM relative to control; values are per cent of control
Chain of Serine/threonine-protein kinase Chk1 (Homo sapiens) (O14757 whole entry): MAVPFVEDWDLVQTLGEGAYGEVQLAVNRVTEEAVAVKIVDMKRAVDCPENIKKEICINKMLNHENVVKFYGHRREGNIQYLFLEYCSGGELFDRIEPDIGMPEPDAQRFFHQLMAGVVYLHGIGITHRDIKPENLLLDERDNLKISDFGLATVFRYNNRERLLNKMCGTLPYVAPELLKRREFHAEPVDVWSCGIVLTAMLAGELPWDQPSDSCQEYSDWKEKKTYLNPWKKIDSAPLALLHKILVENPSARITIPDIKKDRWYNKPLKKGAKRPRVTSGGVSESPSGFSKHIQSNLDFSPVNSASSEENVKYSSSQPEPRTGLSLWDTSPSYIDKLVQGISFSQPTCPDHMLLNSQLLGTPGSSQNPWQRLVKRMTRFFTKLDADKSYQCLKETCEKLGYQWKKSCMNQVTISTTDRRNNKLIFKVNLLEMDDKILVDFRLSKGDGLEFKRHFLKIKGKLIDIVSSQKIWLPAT

Homo sapiens = species: Homo sapiens; assay: Inhibition of p70S6K (unknown origin) at 1 uM relative to control; values are per cent of control
4T1 [10] = assay: Inhibition of cell migration in mouse 4T1 cells incubated for 4 hrs by millicell-motility assay; format: functional, cell-based; details: dose 0.1-1 µM
[11] = target: Protein kinase C alpha type (Homo sapiens) (UniProt P17252); assay: Inhibition of PKCa (unknown origin) at 1 uM relative to control; values are per cent of control
4T1 [12] = assay: Inhibition of colony formation in mouse 4T1 cells assessed as reduction in cell number measured after 10 days by phase contrast microscopy analysis; format: functional, cell-based; details: dose 0.4-1 µM, time 10.0 day
[13] = target: Platelet-derived growth factor receptor beta (Homo sapiens) (UniProt P09619); assay: Inhibition of PDGFRb (unknown origin) at 0.1 uM relative to control; values are per cent of control
[14] = target: Focal adhesion kinase 1 (Mus musculus) (UniProt P34152); assay: Inhibition of FAK phosphorylation at Tyr397 residue in mouse 4T1 cells harbouring mCherry red fluorescent protein at 0.1 to 1 uM incubated for 60 mins followed by compound washout measured after 60 mins by immunoblotting analysis; format: cell-based; details: dose 0.1-1 µM
Chain of Focal adhesion kinase 1 (Mus musculus) (P34152 whole entry): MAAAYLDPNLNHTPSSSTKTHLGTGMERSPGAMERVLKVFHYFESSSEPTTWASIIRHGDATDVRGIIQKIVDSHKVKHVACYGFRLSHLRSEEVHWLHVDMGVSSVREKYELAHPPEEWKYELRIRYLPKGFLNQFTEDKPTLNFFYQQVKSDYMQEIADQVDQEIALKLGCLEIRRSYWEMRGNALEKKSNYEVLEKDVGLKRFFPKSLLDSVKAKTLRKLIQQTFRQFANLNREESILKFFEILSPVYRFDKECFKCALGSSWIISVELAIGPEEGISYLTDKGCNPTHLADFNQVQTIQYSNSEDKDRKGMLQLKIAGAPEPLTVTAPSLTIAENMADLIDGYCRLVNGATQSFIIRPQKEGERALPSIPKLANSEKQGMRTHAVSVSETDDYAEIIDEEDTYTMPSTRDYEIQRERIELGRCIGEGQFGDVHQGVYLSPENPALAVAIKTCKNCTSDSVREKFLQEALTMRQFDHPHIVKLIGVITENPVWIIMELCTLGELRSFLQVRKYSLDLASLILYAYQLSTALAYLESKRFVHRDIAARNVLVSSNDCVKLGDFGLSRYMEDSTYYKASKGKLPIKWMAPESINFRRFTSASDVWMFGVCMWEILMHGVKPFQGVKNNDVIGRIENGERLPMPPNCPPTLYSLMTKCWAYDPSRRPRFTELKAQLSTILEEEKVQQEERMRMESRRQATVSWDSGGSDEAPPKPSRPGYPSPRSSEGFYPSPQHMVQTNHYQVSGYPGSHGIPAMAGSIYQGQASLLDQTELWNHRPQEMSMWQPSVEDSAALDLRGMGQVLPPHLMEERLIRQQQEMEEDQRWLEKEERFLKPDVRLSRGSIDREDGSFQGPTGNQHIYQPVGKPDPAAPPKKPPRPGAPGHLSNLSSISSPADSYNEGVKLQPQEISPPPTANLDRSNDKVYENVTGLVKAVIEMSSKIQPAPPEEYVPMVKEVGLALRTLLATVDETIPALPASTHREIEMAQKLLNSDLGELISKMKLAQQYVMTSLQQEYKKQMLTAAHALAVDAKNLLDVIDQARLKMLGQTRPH

4T1 [15] = assay: Inhibition of colony formation in mouse 4T1 cells assessed as reduction in cell number at 0.4 to 1 uM measured after 4 days by phase contrast microscopy analysis; format: functional, cell-based; details: dose 0.4-1 µM, time 4.0 day
[16] = target: Death-associated protein kinase 1 (Homo sapiens) (UniProt P53355); assay: Inhibition of DAPK1 (unknown origin) at 1 uM relative to control; values are per cent of control
Chain of Death-associated protein kinase 1 (Homo sapiens) (P53355 whole entry, looked up): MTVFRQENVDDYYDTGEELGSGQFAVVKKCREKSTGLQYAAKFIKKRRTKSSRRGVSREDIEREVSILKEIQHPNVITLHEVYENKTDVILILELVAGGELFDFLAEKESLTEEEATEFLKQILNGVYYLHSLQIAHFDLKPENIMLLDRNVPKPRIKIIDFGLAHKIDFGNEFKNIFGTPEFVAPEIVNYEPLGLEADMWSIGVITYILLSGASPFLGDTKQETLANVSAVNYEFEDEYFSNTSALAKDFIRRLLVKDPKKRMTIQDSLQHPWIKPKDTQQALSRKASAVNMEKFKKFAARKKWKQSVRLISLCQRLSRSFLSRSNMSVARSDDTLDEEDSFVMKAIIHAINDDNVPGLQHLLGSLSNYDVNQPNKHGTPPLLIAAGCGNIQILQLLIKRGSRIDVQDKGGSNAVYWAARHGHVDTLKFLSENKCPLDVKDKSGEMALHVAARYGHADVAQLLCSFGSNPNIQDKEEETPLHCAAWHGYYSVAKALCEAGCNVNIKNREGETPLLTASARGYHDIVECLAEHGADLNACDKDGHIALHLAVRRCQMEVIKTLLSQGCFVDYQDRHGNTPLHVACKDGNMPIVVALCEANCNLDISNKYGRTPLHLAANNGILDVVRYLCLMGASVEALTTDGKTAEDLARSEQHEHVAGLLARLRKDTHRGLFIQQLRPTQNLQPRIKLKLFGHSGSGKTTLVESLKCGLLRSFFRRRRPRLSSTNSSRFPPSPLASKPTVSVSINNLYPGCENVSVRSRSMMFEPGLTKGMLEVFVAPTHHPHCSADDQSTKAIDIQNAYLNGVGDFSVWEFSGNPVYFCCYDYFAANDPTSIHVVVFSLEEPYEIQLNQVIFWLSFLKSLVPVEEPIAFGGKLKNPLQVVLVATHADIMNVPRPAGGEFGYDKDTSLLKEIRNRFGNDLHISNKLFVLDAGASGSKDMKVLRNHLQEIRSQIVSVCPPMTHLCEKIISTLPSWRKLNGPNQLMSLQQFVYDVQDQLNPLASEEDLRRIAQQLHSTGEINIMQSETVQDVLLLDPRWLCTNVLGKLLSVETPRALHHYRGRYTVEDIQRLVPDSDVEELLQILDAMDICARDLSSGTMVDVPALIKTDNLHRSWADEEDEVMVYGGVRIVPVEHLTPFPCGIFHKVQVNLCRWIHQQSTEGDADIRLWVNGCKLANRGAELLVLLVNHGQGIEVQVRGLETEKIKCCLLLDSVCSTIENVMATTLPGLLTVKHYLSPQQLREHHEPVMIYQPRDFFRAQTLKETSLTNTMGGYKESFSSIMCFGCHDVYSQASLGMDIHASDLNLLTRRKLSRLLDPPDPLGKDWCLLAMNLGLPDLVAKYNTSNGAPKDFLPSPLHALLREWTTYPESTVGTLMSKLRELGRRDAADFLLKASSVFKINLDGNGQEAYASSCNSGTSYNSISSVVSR

[17] = target: Focal adhesion kinase 1 (Mus musculus) (UniProt P34152); assay: Inhibition of FAK phosphorylation at Y397 residue in mouse 4T1 adherent cells at 0.1 uM incubated for 24 hrs by immunoblotting analysis; format: cell-based
4T1 [18] = assay: Induction of apoptosis in mouse 4T1 suspended cells at 0.1 to 0.4 uM incubated for 24 hrs by annexin V staining based flow cytometry analysis; format: functional; details: dose 0.1-0.4 µM
4T1 [19] = assay: Antitumor activity against mouse 4T1 cells harbouring mCherry red fluorescent protein implanted in BALB/c mouse assessed as increase in cleaved caspase-3 in tumor at 30 to 100 mg/kg, sc bid measured after 5 days by Hoechst staining based microscopic analysis; format: functional, organism-based; details: dose 30-100 mg/kg, time 5.0 day
ID8 = assay: Antitumor activity against mouse ID8 cells implanted in C57BL6 mouse assessed as inhibition of FAK phosphorylation at Y397 residue at 0.5 mg/ml administered as solution in 5% sucrose measured after 30 days by immunoblotting analysis; format: functional, cell-based; details: time 30.0 day
[20] = target: cAMP-dependent protein kinase (PKA) (Homo sapiens) (UniProt P22694+P17612+P22612); assay: Inhibition of PKA (unknown origin) at 1 uM relative to control; values are per cent of control
4T1 [21] = assay: Upregulation of FAK level in mouse 4T1 cells harbouring mCherry red fluorescent protein at 0.1 to 1 uM incubated for 1 hr by immunoblotting analysis; format: functional, cell-based; details: dose 0.1-1 µM
4T1 [22] = assay: Antitumor activity against mouse 4T1 cells harbouring mCherry red fluorescent protein implanted in BALB/c mouse assessed as fold reduction in tumor weight at 100 mg/kg, sc bid measured after 5 days; format: functional; details: time 5 day
[23] = target: ALK tyrosine kinase receptor (Homo sapiens) (UniProt Q9UM73); assay: Inhibition of ALK (unknown origin) at 0.1 uM relative to control; values are per cent of control
4T1 [24] = assay: Induction of apoptosis in mouse 4T1 cells assessed as increase in cell shrinkage at 0.4 to 1 uM measured after 2 days by phase contrast microscopy analysis; format: functional, cell-based; details: dose 0.4-1 µM, time 2.0 day
[25] = target: Casein kinase I isoform gamma-1 (Homo sapiens) (UniProt Q9HCP0); assay: Inhibition of CK1g1 (unknown origin) at 1 uM relative to control; values are per cent of control
4T1 [26] = assay: Induction of apoptosis in mouse 4T1 adherent cells at 0.1 to 1 uM incubated for 24 to 48 hrs by PI staining based flow cytometry analysis; format: functional, cell-based; details: dose 0.1-1 µM, time 24-48 hrs
[27] = target: Focal adhesion kinase 1 (Mus musculus) (UniProt P34152); assay: Inhibition of FAK phosphorylation at Y397 residue in mouse 4T1 adherent cells cultured as 3D spheroids at 0.1 to 1 uM incubated for 24 hrs by immunoblotting analysis; format: cell-based; details: dose 0.1-1 µM
[28] = target: Mitogen-activated protein kinase 1 (Homo sapiens) (UniProt P28482); assay: Inhibition of MAPK1 (unknown origin) at 1 uM relative to control; values are per cent of control
4T1 [29] = assay: Induction of apoptosis in mouse 4T1 adherent cells at 1 uM incubated for 72 hrs by PI staining based flow cytometry analysis; format: functional, cell-based

Chain of Serine/threonine-protein kinase Nek6 (Homo sapiens) (Q9HC98 whole entry): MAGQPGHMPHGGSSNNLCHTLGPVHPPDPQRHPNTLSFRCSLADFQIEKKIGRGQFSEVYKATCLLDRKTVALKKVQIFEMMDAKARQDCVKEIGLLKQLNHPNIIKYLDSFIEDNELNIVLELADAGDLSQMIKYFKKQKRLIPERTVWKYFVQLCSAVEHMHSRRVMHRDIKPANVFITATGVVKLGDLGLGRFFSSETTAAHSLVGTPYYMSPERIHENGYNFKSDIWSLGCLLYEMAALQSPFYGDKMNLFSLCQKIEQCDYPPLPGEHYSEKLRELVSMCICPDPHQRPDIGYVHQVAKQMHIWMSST

residual activity [1]: 107%
residual activity [4]: 118%
residual activity [5]: 119%
residual activity [6]: 40%
residual activity [8]: 56%
residual activity [9]: 105%
residual activity (Homo sapiens): 97%
residual activity [11]: 96%
residual activity [13]: 98%
inhibition [14]: inactive
inhibition [17]: Active
residual activity [20]: 111%
residual activity [23]: 145%
residual activity [25]: 107%
inhibition [27]: Active
residual activity [28]: 58%
SMILES: CNC(=O)c1ccccc1Nc1cc(Nc2ccc(N3CCOCC3)cc2OC)ncc1C(F)(F)F [VS-4718]
Activity (4T1 [2]): 84.4%
Activity (4T1 [3]): Active
Activity (MDA-MB-231): Active
Activity (4T1 [7]): inactive
inhibition (4T1 [10]): Dose-Dependent Effect
inhibition (4T1 [12]): Dose-Dependent Effect
inhibition (4T1 [15]): Active
residual activity [16]: 97%
Activity (4T1 [18]): 50%
Activity (4T1 [19]): Active
Activity (ID8): Active
Activity (4T1 [21]): Active
fold change (FC) (4T1 [22]): 2
Activity (4T1 [24]): Active
Activity (4T1 [26]): inactive
Activity (4T1 [29]): Active

Source: ChEMBL document CHEMBL5715945 (Cancer Biol Ther, 2010)
